Experimental data: PubChem BioAssay AID2060901 (Molecular Pharmacology Branch, DTP, NCI, 2025)
Values joined by “and” are separate entries in the source; they are usually repeats but may differ in a detail not shown here. Equal entries are not always repeated. Values belong to the compound of their own block, whether it stands above or below them.

Test system: 422866-222-R5-J1-PDC complex spheroids viability
Assay: Anticancer human tumor 422866-222-R5-J1-PDC patient-derived pancreatic adenocarcinoma cell line growth inhibition [RAS]
Details: for IC50: curve of first compound; for viability, T/C: stronger effect = lower value
Outline: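 Tumour cells grown as complex spheroids with HUVEC endothelial cells and mesenchymal stem cells, treated with RAS pathway inhibitor combinations. Each agent spans half-log steps from near clinical Cmax, or 10 microM where Cmax is unknown.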

[1] = second compound 0.000949 µM, first compound 0.00316 µM
[2] = second compound 0.000949 µM, first compound 0.01 µM
[3] = second compound 0.000949 µM, first compound 0.0316 µM
[4] = second compound 0.000949 µM, first compound 0.1 µM
[5] = second compound 0.000949 µM, first compound 0.316 µM
[6] = second compound 0.000949 µM, first compound 1 µM
[7] = second compound 0.003 µM, first compound 0.00316 µM
[8] = second compound 0.003 µM, first compound 0.01 µM
[9] = second compound 0.003 µM, first compound 0.0316 µM
[10] = second compound 0.003 µM, first compound 0.1 µM
[11] = second compound 0.003 µM, first compound 0.316 µM
[12] = second compound 0.003 µM, first compound 1 µM
[13] = second compound 0.00949 µM, first compound 0.00316 µM
[14] = second compound 0.00949 µM, first compound 0.01 µM
[15] = second compound 0.00949 µM, first compound 0.0316 µM
[16] = second compound 0.00949 µM, first compound 0.1 µM
[17] = second compound 0.00949 µM, first compound 0.316 µM
[18] = second compound 0.00949 µM, first compound 1 µM
[19] = second compound 0.03 µM, first compound 0.00316 µM
[20] = second compound 0.03 µM, first compound 0.01 µM
[21] = second compound 0.03 µM, first compound 0.0316 µM
[22] = second compound 0.03 µM, first compound 0.1 µM
[23] = second compound 0.03 µM, first compound 0.316 µM
[24] = second compound 0.03 µM, first compound 1 µM
[25] = second compound 0.0949 µM, first compound 0.00316 µM
[26] = second compound 0.0949 µM, first compound 0.01 µM
[27] = second compound 0.0949 µM, first compound 0.0316 µM
[28] = second compound 0.0949 µM, first compound 0.1 µM
[29] = second compound 0.0949 µM, first compound 0.316 µM
[30] = second compound 0.0949 µM, first compound 1 µM
[31] = second compound 0.3 µM, first compound 0.00316 µM
[32] = second compound 0.3 µM, first compound 0.01 µM
[33] = second compound 0.3 µM, first compound 0.0316 µM
[34] = second compound 0.3 µM, first compound 0.1 µM
[35] = second compound 0.3 µM, first compound 0.316 µM
[36] = second compound 0.3 µM, first compound 1 µM
[37] = second compound 0.0316 µM, first compound 0.0316 µM
[38] = second compound 0.0316 µM, first compound 0.1 µM
[39] = second compound 0.0316 µM, first compound 0.316 µM
[40] = second compound 0.0316 µM, first compound 1 µM
[41] = second compound 0.0316 µM, first compound 3.16 µM
[42] = second compound 0.0316 µM, first compound 10 µM
[43] = second compound 0.1 µM, first compound 0.0316 µM
[44] = second compound 0.1 µM, first compound 0.1 µM
[45] = second compound 0.1 µM, first compound 0.316 µM
[46] = second compound 0.1 µM, first compound 1 µM
[47] = second compound 0.1 µM, first compound 3.16 µM
[48] = second compound 0.1 µM, first compound 10 µM
[49] = second compound 0.316 µM, first compound 0.0316 µM
[50] = second compound 0.316 µM, first compound 0.1 µM
[51] = second compound 0.316 µM, first compound 0.316 µM
[52] = second compound 0.316 µM, first compound 1 µM
[53] = second compound 0.316 µM, first compound 3.16 µM
[54] = second compound 0.316 µM, first compound 10 µM
[55] = second compound 1 µM, first compound 0.0316 µM
[56] = second compound 1 µM, first compound 0.1 µM
[57] = second compound 1 µM, first compound 0.316 µM
[58] = second compound 1 µM, first compound 1 µM
[59] = second compound 1 µM, first compound 3.16 µM
[60] = second compound 1 µM, first compound 10 µM
[61] = second compound 3.16 µM, first compound 0.0316 µM
[62] = second compound 3.16 µM, first compound 0.1 µM
[63] = second compound 3.16 µM, first compound 0.316 µM
[64] = second compound 3.16 µM, first compound 1 µM
[65] = second compound 3.16 µM, first compound 3.16 µM
[66] = second compound 3.16 µM, first compound 10 µM
[67] = second compound 10 µM, first compound 0.0316 µM
[68] = second compound 10 µM, first compound 0.1 µM
[69] = second compound 10 µM, first compound 0.316 µM
[70] = second compound 10 µM, first compound 1 µM
[71] = second compound 10 µM, first compound 3.16 µM
[72] = second compound 10 µM, first compound 10 µM
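Note: spheroids exposed to compounds for 7 days.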
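Throughout, for viability, T/C: 100% = DMSO vehicle control viability.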

IC50 (second compound 0.000949 µM): < 3.16 nM
IC50 (second compound 0.003 µM): < 3.16 nM
IC50 (second compound 0.00949 µM): < 3.16 nM
IC50 (second compound 0.03 µM): < 3.16 nM
IC50 (second compound 0.0949 µM): < 3.16 nM
IC50 (second compound 0.3 µM): < 3.16 nM
SMILES: Nc1ccn(C2OC(CO)C(O)C2(F)F)c(=O)n1 (stereo not drawn) + CCn1c(-c2cccnc2C(C)OC)c2c3cc(ccc31)N1CCOC(CC(NC(=O)C(C(C)C)N(C)C(=O)C3(F)CCN(C(=O)C#CC(C)(C)N(C)C)CC3)C(=O)N3CCCC(N3)C(=O)OCC(C)(C)C2)C1
viability, T/C [1]: 25.9%
viability, T/C [2]: 23.6%
viability, T/C [3]: 25.8%
viability, T/C [4]: 23.4%
viability, T/C [5]: 23.1%
viability, T/C [6]: 18.5%
viability, T/C [7]: 22.8%
viability, T/C [8]: 20.6%
viability, T/C [9]: 20.3%
viability, T/C [10]: 17.5%
viability, T/C [11]: 16.3%
viability, T/C [12]: 13.8%
viability, T/C [13]: 22.7%
viability, T/C [14]: 20.1%
viability, T/C [15]: 17.9%
viability, T/C [16]: 15.7%
viability, T/C [17]: 15.6%
viability, T/C [18]: 15.2%
viability, T/C [19]: 18.8%
viability, T/C [20]: 22.6%
viability, T/C [21]: 17.1%
viability, T/C [22]: 13.3%
viability, T/C [23]: 14.6%
viability, T/C [24]: 16.9%
viability, T/C [25]: 17.2%
viability, T/C [26]: 17.9%
viability, T/C [27]: 15.9%
viability, T/C [28]: 13.1%
viability, T/C [29]: 13.3%
viability, T/C [30]: 12.9%
viability, T/C [31]: 14.2%
viability, T/C [32]: 17.2%
viability, T/C [33]: 14.3%
viability, T/C [34]: 12.4%
viability, T/C [35]: 12.5%
viability, T/C [36]: 11.4%

SMILES: CC(Nc1ccc2c(c1)OCCn1cc(N3C(=O)OCC3C(F)F)nc1-2)C(N)=O (stereo not drawn)
viability, T/C (compound 0.0316 µM): 75.3% [middle of 4 runs]
viability, T/C (compound 0.1 µM): 53.4% [middle of 4 runs]
viability, T/C (compound 0.316 µM): 42.6% [middle of 4 runs]
viability, T/C (compound 1 µM): 39.3% [middle of 4 runs]
viability, T/C (compound 10 µM): 26.1% and 23.8% and 27% (2×)

IC50 (second compound 0.000949 µM): < 3.16 nM
IC50 (second compound 0.003 µM): < 3.16 nM
IC50 (second compound 0.00949 µM): < 3.16 nM
IC50 (second compound 0.03 µM): < 3.16 nM
IC50 (second compound 0.0949 µM): < 3.16 nM
IC50 (second compound 0.3 µM): < 3.16 nM
SMILES: CCN1CCN(Cc2ccc(Nc3ncc(F)c(-c4cc(F)c5nc(C)n(C(C)C)c5c4)n3)nc2)CC1 + CCn1c(-c2cccnc2C(C)OC)c2c3cc(ccc31)N1CCOC(CC(NC(=O)C(C(C)C)N(C)C(=O)C3(F)CCN(C(=O)C#CC(C)(C)N(C)C)CC3)C(=O)N3CCCC(N3)C(=O)OCC(C)(C)C2)C1
viability, T/C [1]: 30.8%
viability, T/C [2]: 26.9%
viability, T/C [3]: 27.2%
viability, T/C [4]: 25.8%
viability, T/C [5]: 30%
viability, T/C [6]: 39%
viability, T/C [7]: 23.8%
viability, T/C [8]: 24.9%
viability, T/C [9]: 23.7%
viability, T/C [10]: 20.3%
viability, T/C [11]: 26.3%
viability, T/C [12]: 37.5%
viability, T/C [13]: 25%
viability, T/C [14]: 21.9%
viability, T/C [15]: 20%
viability, T/C [16]: 21.5%
viability, T/C [17]: 25.3%
viability, T/C [18]: 37.5%
viability, T/C [19]: 20.6%
viability, T/C [20]: 19.9%
viability, T/C [21]: 16.8%
viability, T/C [22]: 19.1%
viability, T/C [23]: 26.7%
viability, T/C [24]: 40.3%
viability, T/C [25]: 18.5%
viability, T/C [26]: 21.1%
viability, T/C [27]: 19.7%
viability, T/C [28]: 18.6%
viability, T/C [29]: 27.5%
viability, T/C [30]: 37.2%
viability, T/C [31]: 19.9%
viability, T/C [32]: 18.8%
viability, T/C [33]: 18.8%
viability, T/C [34]: 17.1%
viability, T/C [35]: 24%
viability, T/C [36]: 34.9%

IC50 (second compound 0.0316 µM): > 10000 nM
IC50 (second compound 0.1 µM): > 10000 nM
IC50 (second compound 0.316 µM): > 10000 nM
IC50 (second compound 1 µM): < 31.6 nM
IC50 (second compound 3.16 µM): < 31.6 nM
IC50 (second compound 10 µM): < 31.6 nM
SMILES: CC(C)NCC(C(=O)N1CCN(c2ncnc3c2C(C)CC3O)CC1)c1ccc(Cl)cc1 (stereo not drawn) + C#Cc1c(F)ccc2cc(O)cc(-c3ncc4c(N5CC6CCC(C5)N6)nc(OCC56CCCN5CC(F)C6)nc4c3F)c12
viability, T/C [37]: 87.4%
viability, T/C [38]: 79%
viability, T/C [39]: 88%
viability, T/C [40]: 100%
viability, T/C [41]: 103%
viability, T/C [42]: 121%
viability, T/C [43]: 86.9%
viability, T/C [44]: 64.4%
viability, T/C [45]: 78.3%
viability, T/C [46]: 74.7%
viability, T/C [47]: 94.2%
viability, T/C [48]: 109%
viability, T/C [49]: 60.3%
viability, T/C [50]: 46.1%
viability, T/C [51]: 58.5%
viability, T/C [52]: 69.9%
viability, T/C [53]: 81.8%
viability, T/C [54]: 85.2%
viability, T/C [55]: 39.9%
viability, T/C [56]: 35.3%
viability, T/C [57]: 38.9%
viability, T/C [58]: 48.6%
viability, T/C [59]: 66.5%
viability, T/C [60]: 58.9%
viability, T/C [61]: 25.6%
viability, T/C [62]: 24.3%
viability, T/C [63]: 19.6%
viability, T/C [64]: 29.4%
viability, T/C [65]: 38.4%
viability, T/C [66]: 40.9%
viability, T/C [67]: 17.3%
viability, T/C [68]: 19%
viability, T/C [69]: 14.6%
viability, T/C [70]: 12%
viability, T/C [71]: 18.8%
viability, T/C [72]: 18.8%

IC50 (second compound 0.0316 µM): 1860 nM
IC50 (second compound 0.1 µM): 1690 nM
IC50 (second compound 0.316 µM): 1340 nM
IC50 (second compound 1 µM): 466 nM
IC50 (second compound 3.16 µM): < 31.6 nM
IC50 (second compound 10 µM): < 31.6 nM
SMILES: CCC(CC)c1cc(NC2CCC(N)C2)n2nccc2n1 (stereo not drawn) + C#Cc1c(F)ccc2cc(O)cc(-c3ncc4c(N5CC6CCC(C5)N6)nc(OCC56CCCN5CC(F)C6)nc4c3F)c12
viability, T/C [37]: 97.8%
viability, T/C [38]: 104%
viability, T/C [39]: 118%
viability, T/C [40]: 75.7%
viability, T/C [41]: 19.7%
viability, T/C [42]: 36.2%
viability, T/C [43]: 99%
viability, T/C [44]: 125%
viability, T/C [45]: 98.2%
viability, T/C [46]: 71.9%
viability, T/C [47]: 12.5%
viability, T/C [48]: 35.3%
viability, T/C [49]: 75%
viability, T/C [50]: 85.1%
viability, T/C [51]: 83.4%
viability, T/C [52]: 58.5%
viability, T/C [53]: 12.3%
viability, T/C [54]: 38.6%
viability, T/C [55]: 50.2%
viability, T/C [56]: 57.9%
viability, T/C [57]: 47.8%
viability, T/C [58]: 46.1%
viability, T/C [59]: 12.7%
viability, T/C [60]: 35.3%
viability, T/C [61]: 35.6%
viability, T/C [62]: 28.6%
viability, T/C [63]: 33.3%
viability, T/C [64]: 33.9%
viability, T/C [65]: 10.5%
viability, T/C [66]: 39.9%
viability, T/C [67]: 21.7%
viability, T/C [68]: 24.9%
viability, T/C [69]: 30.2%
viability, T/C [70]: 27.6%
viability, T/C [71]: 9.17%
viability, T/C [72]: 35%
